Results reported in PubChem BioAssay (NCI).
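Dose response: 5 concentrations. Exposure: 48 h. Format: 96-well plates. Endpoint: linear interpolation; highest concentration if not reached. Abbreviation: GI50, concentration required for 50% inhibition of growth. TGI marks complete inhibition of growth.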

Assays:
Assay in all cases: DTP human tumour cell line panel, 48 h
OVCAR-3 ovarian = system: OVCAR-3 ovarian
K-562 leukemia = system: K-562 leukemia
U251 CNS = system: U251 CNS
786-0 renal = system: 786-0 renal
UO-31 renal = system: UO-31 renal
EKVX NSCLC = system: EKVX NSCLC
ACHN renal = system: ACHN renal
SN12C renal = system: SN12C renal
HS 578T breast = system: HS 578T breast
LOX IMVI melanoma = system: LOX IMVI melanoma
HOP-62 NSCLC = system: HOP-62 NSCLC
DU-145 prostate = system: DU-145 prostate
UACC-62 melanoma = system: UACC-62 melanoma
SNB-19 CNS = system: SNB-19 CNS
OVCAR-4 ovarian = system: OVCAR-4 ovarian
MOLT-4 leukemia = system: MOLT-4 leukemia
NCI-H460 lung = system: NCI-H460 lung
SF-539 CNS = system: SF-539 CNS
PC-3 prostate = system: PC-3 prostate
COLO 205 colon = system: COLO 205 colon
HOP-92 NSCLC = system: HOP-92 NSCLC
NCI/ADR-RES ovarian = system: NCI/ADR-RES ovarian
UACC-257 melanoma = system: UACC-257 melanoma
SK-OV-3 ovarian = system: SK-OV-3 ovarian
TK-10 renal = system: TK-10 renal
BT-549 breast = system: BT-549 breast
NCI-H226 lung = system: NCI-H226 lung
CAKI-1 renal = system: CAKI-1 renal
MDA-MB-435 = system: MDA-MB-435
A549 NSCLC = system: A549 NSCLC
OVCAR-5 ovarian = system: OVCAR-5 ovarian
HCC-2998 colon = system: HCC-2998 colon
M14 melanoma = system: M14 melanoma
SF-295 CNS = system: SF-295 CNS
IGROV1 ovarian = system: IGROV1 ovarian
HT29 colon = system: HT29 colon
HCT-15 colon = system: HCT-15 colon
RXF 393 renal = system: RXF 393 renal
HCT-116 colon = system: HCT-116 colon
SF-268 CNS = system: SF-268 CNS
MDA-MB-231 breast = system: MDA-MB-231 breast
T-47D breast = system: T-47D breast
SW-620 colon = system: SW-620 colon
SK-MEL-5 melanoma = system: SK-MEL-5 melanoma
KM12 colon = system: KM12 colon
SK-MEL-2 melanoma = system: SK-MEL-2 melanoma
MCF7 breast = system: MCF7 breast
NCI-H522 lung = system: NCI-H522 lung
SNB-75 CNS = system: SNB-75 CNS
RPMI-8226 leukemia = system: RPMI-8226 leukemia
A498 renal = system: A498 renal
SK-MEL-28 melanoma = system: SK-MEL-28 melanoma
HL-60(TB) leukemia = system: HL-60(TB) leukemia
NCI-H23 lung = system: NCI-H23 lung
CCRF-CEM leukemia = system: CCRF-CEM leukemia
MALME-3M melanoma = system: MALME-3M melanoma
OVCAR-8 ovarian = system: OVCAR-8 ovarian

CN(C)CCNc1c2c(c(NCCN(C)C)c3c(CN(C)C)c[nH]c13)C(=O)c1ccccc1C2=O
GI50 (OVCAR-3 ovarian): 4.29 µM
TGI (OVCAR-3 ovarian): 23.9 µM
GI50 (K-562 leukemia): 2.59 µM
TGI (K-562 leukemia): 14.6 µM
GI50 (U251 CNS): 2.57 µM
TGI (U251 CNS): 10.4 µM
GI50 (786-0 renal): 0.356 µM
TGI (786-0 renal): 8.91 µM
GI50 (UO-31 renal): 3.76 µM
TGI (UO-31 renal): 16.8 µM
GI50 (EKVX NSCLC): 4.31 µM
TGI (EKVX NSCLC): 17.3 µM
GI50 (ACHN renal): 1.15 µM
TGI (ACHN renal): 5.88 µM
GI50 (SN12C renal): 1.18 µM
TGI (SN12C renal): 7.32 µM
GI50 (HS 578T breast): 7.49 µM
TGI (HS 578T breast): 19 µM
GI50 (LOX IMVI melanoma): 1.05 µM
TGI (LOX IMVI melanoma): 2.73 µM
GI50 (HOP-62 NSCLC): 0.946 µM
TGI (HOP-62 NSCLC): 11.9 µM
GI50 (DU-145 prostate): 4.2 µM
TGI (DU-145 prostate): 15.1 µM
GI50 (UACC-62 melanoma): 14.7 µM
TGI (UACC-62 melanoma): 29.9 µM
GI50 (SNB-19 CNS): 16.1 µM
TGI (SNB-19 CNS): 40 µM
GI50 (OVCAR-4 ovarian): 8.23 µM
TGI (OVCAR-4 ovarian): 34.1 µM
GI50 (MOLT-4 leukemia): 0.582 µM
TGI (MOLT-4 leukemia): > 38.1 µM
GI50 (NCI-H460 lung): 2.2 µM
TGI (NCI-H460 lung): 9.49 µM
GI50 (SF-539 CNS): 3.85 µM
TGI (SF-539 CNS): 10.2 µM
GI50 (PC-3 prostate): 0.612 µM
TGI (PC-3 prostate): 3.2 µM
GI50 (COLO 205 colon): 13.6 µM
TGI (COLO 205 colon): > 53.8 µM
GI50 (HOP-92 NSCLC): 2.91 µM
TGI (HOP-92 NSCLC): 15.8 µM
GI50 (NCI/ADR-RES ovarian): 4.53 µM
TGI (NCI/ADR-RES ovarian): 20.5 µM
GI50 (UACC-257 melanoma): 9.15 µM
TGI (UACC-257 melanoma): > 27.4 µM
GI50 (SK-OV-3 ovarian): 17.4 µM
TGI (SK-OV-3 ovarian): 40.2 µM
GI50 (TK-10 renal): 2.08 µM
TGI (TK-10 renal): 7.06 µM
GI50 (BT-549 breast): 18.2 µM
TGI (BT-549 breast): 36.9 µM
GI50 (NCI-H226 lung): 15 µM
TGI (NCI-H226 lung): 35.5 µM
GI50 (CAKI-1 renal): 4.73 µM
TGI (CAKI-1 renal): 11.5 µM
GI50 (MDA-MB-435): 2.75 µM
TGI (MDA-MB-435): 8.04 µM
GI50 (A549 NSCLC): 2.88 µM
TGI (A549 NSCLC): 9.98 µM
GI50 (OVCAR-5 ovarian): 16 µM
TGI (OVCAR-5 ovarian): 34.6 µM
GI50 (HCC-2998 colon): 2.14 µM
TGI (HCC-2998 colon): 8.61 µM
GI50 (M14 melanoma): 2.48 µM
TGI (M14 melanoma): 7.57 µM
GI50 (SF-295 CNS): 3.14 µM
TGI (SF-295 CNS): 9.83 µM
GI50 (IGROV1 ovarian): 2.22 µM
TGI (IGROV1 ovarian): 11.7 µM
GI50 (HT29 colon): 2.56 µM
TGI (HT29 colon): 27.4 µM
GI50 (HCT-15 colon): 1.35 µM
TGI (HCT-15 colon): 6.98 µM
GI50 (RXF 393 renal): 3.71 µM
TGI (RXF 393 renal): 19.5 µM
GI50 (HCT-116 colon): 0.676 µM
TGI (HCT-116 colon): > 100 µM
GI50 (SF-268 CNS): 5.39 µM
TGI (SF-268 CNS): 22.1 µM
GI50 (MDA-MB-231 breast): 1.61 µM
TGI (MDA-MB-231 breast): 9.39 µM
GI50 (T-47D breast): 22.3 µM
TGI (T-47D breast): 46.8 µM
GI50 (SW-620 colon): 2.7 µM
TGI (SW-620 colon): 9.72 µM
GI50 (SK-MEL-5 melanoma): 5.65 µM
TGI (SK-MEL-5 melanoma): 10.6 µM
GI50 (KM12 colon): 1.6 µM
TGI (KM12 colon): 7.3 µM
GI50 (SK-MEL-2 melanoma): 18.3 µM
TGI (SK-MEL-2 melanoma): 42.9 µM
GI50 (MCF7 breast): 1.81 µM
TGI (MCF7 breast): 10 µM
GI50 (NCI-H522 lung): 3.39 µM
TGI (NCI-H522 lung): 18.7 µM
GI50 (SNB-75 CNS): 19.2 µM
TGI (SNB-75 CNS): 40.9 µM
GI50 (RPMI-8226 leukemia): 0.545 µM
TGI (RPMI-8226 leukemia): 2.26 µM
GI50 (A498 renal): 18.7 µM
TGI (A498 renal): 33.6 µM
GI50 (SK-MEL-28 melanoma): 16.7 µM
TGI (SK-MEL-28 melanoma): 38.2 µM
GI50 (HL-60(TB) leukemia): 3.02 µM
TGI (HL-60(TB) leukemia): 7.48 µM
GI50 (NCI-H23 lung): 3.91 µM
TGI (NCI-H23 lung): 14.6 µM
GI50 (CCRF-CEM leukemia): 0.639 µM
TGI (CCRF-CEM leukemia): 2.58 µM
GI50 (MALME-3M melanoma): 6.5 µM
TGI (MALME-3M melanoma): 15.7 µM
GI50 (OVCAR-8 ovarian): 2.16 µM
TGI (OVCAR-8 ovarian): 14.2 µM
